#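 Values below derive from 48-hour exposures of cells grown in 96-well plates, with endpoints linearly interpolated between the two concentrations bracketing the appropriate inhibition level. At the TGI there is no net growth.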
# Assays:
# Experiment in all cases: growth of human tumour cells (NCI), 48 h
# IGROV1 ovarian = tested on: IGROV1 ovarian
# SK-MEL-28 melanoma = tested on: SK-MEL-28 melanoma
# MDA-N = tested on: MDA-N
# U251 CNS = tested on: U251 CNS
# OVCAR-5 ovarian = tested on: OVCAR-5 ovarian
# HS 578T breast = tested on: HS 578T breast
# SF-268 CNS = tested on: SF-268 CNS
# SW-620 colon = tested on: SW-620 colon
# SR leukemia = tested on: SR leukemia
# EKVX NSCLC = tested on: EKVX NSCLC
# MALME-3M melanoma = tested on: MALME-3M melanoma
# HCT-15 colon = tested on: HCT-15 colon
# SK-MEL-5 melanoma = tested on: SK-MEL-5 melanoma
# NCI-H226 lung = tested on: NCI-H226 lung
# SN12C renal = tested on: SN12C renal
# HCT-116 colon = tested on: HCT-116 colon
# OVCAR-4 ovarian = tested on: OVCAR-4 ovarian
# M14 melanoma = tested on: M14 melanoma
# HL-60(TB) leukemia = tested on: HL-60(TB) leukemia
# MDA-MB-435 = tested on: MDA-MB-435
# PC-3 prostate = tested on: PC-3 prostate
# CCRF-CEM leukemia = tested on: CCRF-CEM leukemia
# SF-295 CNS = tested on: SF-295 CNS
# ACHN renal = tested on: ACHN renal
# A498 renal = tested on: A498 renal
# NCI/ADR-RES ovarian = tested on: NCI/ADR-RES ovarian
# UO-31 renal = tested on: UO-31 renal
# NCI-H460 lung = tested on: NCI-H460 lung
# UACC-62 melanoma = tested on: UACC-62 melanoma
# NCI-H23 lung = tested on: NCI-H23 lung
# 786-0 renal = tested on: 786-0 renal
# SNB-75 CNS = tested on: SNB-75 CNS
# TK-10 renal = tested on: TK-10 renal
# HOP-92 NSCLC = tested on: HOP-92 NSCLC
# SF-539 CNS = tested on: SF-539 CNS
# A549 NSCLC = tested on: A549 NSCLC
# MDA-MB-231 breast = tested on: MDA-MB-231 breast
# SK-MEL-2 melanoma = tested on: SK-MEL-2 melanoma
# BT-549 breast = tested on: BT-549 breast
# CAKI-1 renal = tested on: CAKI-1 renal
# K-562 leukemia = tested on: K-562 leukemia
# LOX IMVI melanoma = tested on: LOX IMVI melanoma
# UACC-257 melanoma = tested on: UACC-257 melanoma
# SK-OV-3 ovarian = tested on: SK-OV-3 ovarian
# RPMI-8226 leukemia = tested on: RPMI-8226 leukemia
# RXF 393 renal = tested on: RXF 393 renal
# HT29 colon = tested on: HT29 colon
# OVCAR-8 ovarian = tested on: OVCAR-8 ovarian
# OVCAR-3 ovarian = tested on: OVCAR-3 ovarian
# MCF7 breast = tested on: MCF7 breast
# COLO 205 colon = tested on: COLO 205 colon
# DU-145 prostate = tested on: DU-145 prostate
# HCC-2998 colon = tested on: HCC-2998 colon
# KM12 colon = tested on: KM12 colon
# SNB-19 CNS = tested on: SNB-19 CNS
# HOP-62 NSCLC = tested on: HOP-62 NSCLC
# T-47D breast = tested on: T-47D breast
# NCI-H522 lung = tested on: NCI-H522 lung
smiles,measurement,setting,value
Clc1ccccc1/C=C/c1ccnc2ccccc12,TGI,IGROV1 ovarian,32.7 µM
same,TGI,SK-MEL-28 melanoma,34.9 µM
same,TGI,MDA-N,27.7 µM
same,TGI,U251 CNS,31.4 µM
same,TGI,OVCAR-5 ovarian,34.5 µM
same,TGI,HS 578T breast,53 µM
same,TGI,SF-268 CNS,40.2 µM
same,TGI,SW-620 colon,35.6 µM
same,TGI,SR leukemia,46.8 µM
same,TGI,EKVX NSCLC,17.9 µM
same,TGI,MALME-3M melanoma,35.4 µM
same,TGI,HCT-15 colon,28.1 µM
same,TGI,SK-MEL-5 melanoma,28.4 µM
same,TGI,NCI-H226 lung,33.3 µM
same,TGI,SN12C renal,30.1 µM
same,TGI,HCT-116 colon,29.1 µM
same,TGI,OVCAR-4 ovarian,31.3 µM
same,TGI,M14 melanoma,32.1 µM
same,TGI,HL-60(TB) leukemia,45 µM
same,TGI,MDA-MB-435,29.2 µM
same,TGI,PC-3 prostate,30.6 µM
same,TGI,CCRF-CEM leukemia,50.3 µM
same,TGI,SF-295 CNS,29.2 µM
same,TGI,ACHN renal,30.1 µM
same,TGI,A498 renal,33.1 µM
same,TGI,NCI/ADR-RES ovarian,32.9 µM
same,TGI,UO-31 renal,31 µM
same,TGI,NCI-H460 lung,31.7 µM
same,TGI,UACC-62 melanoma,29 µM
same,TGI,NCI-H23 lung,27.5 µM
same,TGI,786-0 renal,29.2 µM
same,TGI,SNB-75 CNS,29 µM
same,TGI,TK-10 renal,32.1 µM
same,TGI,HOP-92 NSCLC,24.2 µM
same,TGI,SF-539 CNS,34.9 µM
same,TGI,A549 NSCLC,29.9 µM
same,TGI,MDA-MB-231 breast,41.9 µM
same,TGI,SK-MEL-2 melanoma,34.2 µM
same,TGI,BT-549 breast,29 µM
same,TGI,CAKI-1 renal,30.5 µM
same,TGI,K-562 leukemia,38.6 µM
same,TGI,LOX IMVI melanoma,35.2 µM
same,TGI,UACC-257 melanoma,28.5 µM
same,TGI,SK-OV-3 ovarian,32.8 µM
same,TGI,RPMI-8226 leukemia,36.3 µM
same,TGI,RXF 393 renal,31 µM
same,TGI,HT29 colon,29.8 µM
same,TGI,OVCAR-8 ovarian,36.3 µM
same,TGI,OVCAR-3 ovarian,28 µM
same,TGI,MCF7 breast,26.7 µM
same,TGI,COLO 205 colon,26.7 µM
same,TGI,DU-145 prostate,29 µM
same,TGI,HCC-2998 colon,32.2 µM
same,TGI,KM12 colon,31.6 µM
same,TGI,SNB-19 CNS,31.3 µM
same,TGI,HOP-62 NSCLC,31.9 µM
same,TGI,T-47D breast,30.2 µM
same,TGI,NCI-H522 lung,31.7 µM
CCC(N)(C(=O)O)C(C)C (stereo unspecified),TGI,IGROV1 ovarian,> 100 µM
same,TGI,SK-MEL-28 melanoma,> 100 µM
same,TGI,MDA-N,> 100 µM
same,TGI,U251 CNS,> 100 µM
same,TGI,OVCAR-5 ovarian,> 100 µM
same,TGI,HS 578T breast,> 100 µM
same,TGI,SF-268 CNS,> 100 µM
same,TGI,SW-620 colon,> 100 µM
same,TGI,SR leukemia,> 100 µM
same,TGI,EKVX NSCLC,> 100 µM
same,TGI,MALME-3M melanoma,> 100 µM
same,TGI,HCT-15 colon,> 100 µM
same,TGI,SK-MEL-5 melanoma,> 100 µM
same,TGI,NCI-H226 lung,> 100 µM
same,TGI,SN12C renal,> 100 µM
same,TGI,HCT-116 colon,> 100 µM
same,TGI,OVCAR-4 ovarian,> 100 µM
same,TGI,M14 melanoma,> 100 µM
same,TGI,HL-60(TB) leukemia,> 100 µM
same,TGI,MDA-MB-435,> 100 µM
same,TGI,PC-3 prostate,> 100 µM
same,TGI,CCRF-CEM leukemia,> 100 µM
same,TGI,SF-295 CNS,> 100 µM
same,TGI,ACHN renal,> 100 µM
same,TGI,A498 renal,> 100 µM
same,TGI,NCI/ADR-RES ovarian,> 100 µM
same,TGI,UO-31 renal,> 100 µM
same,TGI,NCI-H460 lung,> 100 µM
same,TGI,UACC-62 melanoma,> 100 µM
same,TGI,NCI-H23 lung,> 100 µM
same,TGI,786-0 renal,> 100 µM
same,TGI,SNB-75 CNS,> 100 µM
same,TGI,TK-10 renal,> 100 µM
same,TGI,HOP-92 NSCLC,> 100 µM
same,TGI,SF-539 CNS,> 100 µM
same,TGI,A549 NSCLC,> 100 µM
same,TGI,MDA-MB-231 breast,> 100 µM
same,TGI,SK-MEL-2 melanoma,> 100 µM
same,TGI,BT-549 breast,> 100 µM
same,TGI,CAKI-1 renal,> 100 µM
same,TGI,K-562 leukemia,> 100 µM
same,TGI,LOX IMVI melanoma,> 100 µM
same,TGI,UACC-257 melanoma,> 100 µM
same,TGI,SK-OV-3 ovarian,> 100 µM
same,TGI,RPMI-8226 leukemia,> 100 µM
same,TGI,RXF 393 renal,> 100 µM
same,TGI,HT29 colon,> 100 µM
same,TGI,OVCAR-8 ovarian,> 100 µM
same,TGI,OVCAR-3 ovarian,> 100 µM
same,TGI,MCF7 breast,> 100 µM
same,TGI,COLO 205 colon,> 100 µM
same,TGI,DU-145 prostate,> 100 µM
same,TGI,HCC-2998 colon,> 100 µM
same,TGI,KM12 colon,> 100 µM
same,TGI,SNB-19 CNS,> 100 µM
same,TGI,HOP-62 NSCLC,> 100 µM
same,TGI,T-47D breast,> 100 µM
same,TGI,NCI-H522 lung,> 100 µM

# From PubChem BioAssay (NCI)
